Source: paper PMC10175918 (Communications Biology, 2023)
Where two headings read alike, the source gives them in different places.

What was measured:
Test in all cases: TGFα-shedding assay-based GPCR screening with chimeric Gα subunit proteins
Format in all cases: cell-based
348 GPCRs [1] = molecular target: T1, 348 GPCRs (Homo sapiens, UniProt Q96P67); conditions: 10µM, Favipiravir 100μM
T1 construct: expressed in transfected cells; host or cells: HEK293A

348 GPCRs [2] = molecular target: T2, 348 GPCRs (Homo sapiens, UniProt Q9P1P5); conditions: 10µM, Favipiravir 100μM
T2 construct: expressed in transfected cells; host or cells: HEK293A
T2 sequence (Q9P1P5 1-351): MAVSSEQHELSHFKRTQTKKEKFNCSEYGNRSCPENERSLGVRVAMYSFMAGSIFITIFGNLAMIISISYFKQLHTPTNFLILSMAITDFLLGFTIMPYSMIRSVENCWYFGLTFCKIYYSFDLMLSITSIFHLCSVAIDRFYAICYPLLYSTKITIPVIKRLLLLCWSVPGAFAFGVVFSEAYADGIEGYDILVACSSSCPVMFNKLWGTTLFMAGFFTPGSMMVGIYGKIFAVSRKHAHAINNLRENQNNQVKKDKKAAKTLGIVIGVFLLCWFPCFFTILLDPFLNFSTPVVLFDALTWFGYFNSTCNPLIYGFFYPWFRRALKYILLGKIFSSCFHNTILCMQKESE

348 GPCRs [3] = molecular target: T3, 348 GPCRs (Homo sapiens, UniProt Q8N6U8); conditions: 10µM, Favipiravir 100μM
T3 construct: expressed in transfected cells; host or cells: HEK293A
T3 sequence (Q8N6U8 whole entry): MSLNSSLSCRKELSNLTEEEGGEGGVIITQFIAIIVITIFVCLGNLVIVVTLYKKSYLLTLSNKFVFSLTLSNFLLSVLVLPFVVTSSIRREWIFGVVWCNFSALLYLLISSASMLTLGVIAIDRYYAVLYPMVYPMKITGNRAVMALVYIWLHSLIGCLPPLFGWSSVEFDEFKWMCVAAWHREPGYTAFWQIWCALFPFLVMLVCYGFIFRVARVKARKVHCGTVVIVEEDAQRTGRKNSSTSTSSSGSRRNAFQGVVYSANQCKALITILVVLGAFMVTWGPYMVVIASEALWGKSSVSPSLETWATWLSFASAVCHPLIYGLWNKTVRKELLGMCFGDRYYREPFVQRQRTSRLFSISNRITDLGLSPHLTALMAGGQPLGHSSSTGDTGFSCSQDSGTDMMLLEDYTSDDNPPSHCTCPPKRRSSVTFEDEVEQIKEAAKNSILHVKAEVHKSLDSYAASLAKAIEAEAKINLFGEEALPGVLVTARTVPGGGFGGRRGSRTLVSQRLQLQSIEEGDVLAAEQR

348 GPCRs [4] = molecular target: T4, 348 GPCRs (Homo sapiens, UniProt Q86SQ6)
T4 construct: expressed in transfected cells; host or cells: HEK293A
T4 sequence (Q86SQ6 1-560): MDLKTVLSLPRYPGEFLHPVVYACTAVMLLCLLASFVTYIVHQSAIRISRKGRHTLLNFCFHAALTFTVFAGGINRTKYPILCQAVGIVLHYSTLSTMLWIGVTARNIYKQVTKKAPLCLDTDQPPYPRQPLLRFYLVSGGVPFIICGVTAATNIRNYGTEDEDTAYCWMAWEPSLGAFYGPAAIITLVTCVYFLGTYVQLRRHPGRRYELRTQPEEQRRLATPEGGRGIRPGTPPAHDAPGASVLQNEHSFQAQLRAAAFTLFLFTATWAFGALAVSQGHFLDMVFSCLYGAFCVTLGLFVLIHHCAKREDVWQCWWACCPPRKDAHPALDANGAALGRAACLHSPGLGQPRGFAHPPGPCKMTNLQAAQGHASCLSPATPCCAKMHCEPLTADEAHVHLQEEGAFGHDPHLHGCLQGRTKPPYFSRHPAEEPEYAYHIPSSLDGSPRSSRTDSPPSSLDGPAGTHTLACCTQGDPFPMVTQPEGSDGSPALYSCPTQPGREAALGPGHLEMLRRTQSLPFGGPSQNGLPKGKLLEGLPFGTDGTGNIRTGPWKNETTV

348 GPCRs [5] = molecular target: 348 GPCRs (Homo sapiens, UniProt O43193); conditions: 10µM, Favipiravir 100μM
Chain of 348 GPCRs (Homo sapiens, UniProt O43193) (O43193 whole entry): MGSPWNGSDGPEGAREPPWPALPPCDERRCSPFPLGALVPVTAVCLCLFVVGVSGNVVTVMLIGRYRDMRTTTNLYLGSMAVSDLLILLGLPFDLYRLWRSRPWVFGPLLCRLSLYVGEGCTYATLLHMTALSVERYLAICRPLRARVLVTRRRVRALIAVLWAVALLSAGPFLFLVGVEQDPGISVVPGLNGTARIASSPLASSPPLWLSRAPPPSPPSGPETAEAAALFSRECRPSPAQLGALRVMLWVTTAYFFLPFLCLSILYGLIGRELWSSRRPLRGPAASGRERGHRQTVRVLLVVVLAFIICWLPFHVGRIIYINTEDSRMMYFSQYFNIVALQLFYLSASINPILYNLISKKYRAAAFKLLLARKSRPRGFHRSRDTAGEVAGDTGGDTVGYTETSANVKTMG

348 GPCRs [6] = molecular target: 348 GPCRs (Homo sapiens, UniProt P32745); conditions: 10µM, Favipiravir 100μM
Chain of 348 GPCRs (Homo sapiens, UniProt P32745) (P32745 whole entry): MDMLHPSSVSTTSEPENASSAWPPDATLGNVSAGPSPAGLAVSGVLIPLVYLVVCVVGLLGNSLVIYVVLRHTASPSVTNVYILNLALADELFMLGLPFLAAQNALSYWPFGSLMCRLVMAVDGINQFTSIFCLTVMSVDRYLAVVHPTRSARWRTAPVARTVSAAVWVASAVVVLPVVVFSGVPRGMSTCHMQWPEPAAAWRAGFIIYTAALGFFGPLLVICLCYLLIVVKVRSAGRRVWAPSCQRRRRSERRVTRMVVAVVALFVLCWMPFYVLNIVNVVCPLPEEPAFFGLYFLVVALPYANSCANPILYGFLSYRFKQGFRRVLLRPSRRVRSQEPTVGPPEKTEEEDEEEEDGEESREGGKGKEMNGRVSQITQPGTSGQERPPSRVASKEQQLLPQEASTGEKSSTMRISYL

348 GPCRs [7] = molecular target: T5, 348 GPCRs (Homo sapiens, UniProt Q14831); conditions: 10µM, Favipiravir 100μM
T5 construct: expressed in transfected cells; host or cells: HEK293A
T5 sequence (Q14831 35-915): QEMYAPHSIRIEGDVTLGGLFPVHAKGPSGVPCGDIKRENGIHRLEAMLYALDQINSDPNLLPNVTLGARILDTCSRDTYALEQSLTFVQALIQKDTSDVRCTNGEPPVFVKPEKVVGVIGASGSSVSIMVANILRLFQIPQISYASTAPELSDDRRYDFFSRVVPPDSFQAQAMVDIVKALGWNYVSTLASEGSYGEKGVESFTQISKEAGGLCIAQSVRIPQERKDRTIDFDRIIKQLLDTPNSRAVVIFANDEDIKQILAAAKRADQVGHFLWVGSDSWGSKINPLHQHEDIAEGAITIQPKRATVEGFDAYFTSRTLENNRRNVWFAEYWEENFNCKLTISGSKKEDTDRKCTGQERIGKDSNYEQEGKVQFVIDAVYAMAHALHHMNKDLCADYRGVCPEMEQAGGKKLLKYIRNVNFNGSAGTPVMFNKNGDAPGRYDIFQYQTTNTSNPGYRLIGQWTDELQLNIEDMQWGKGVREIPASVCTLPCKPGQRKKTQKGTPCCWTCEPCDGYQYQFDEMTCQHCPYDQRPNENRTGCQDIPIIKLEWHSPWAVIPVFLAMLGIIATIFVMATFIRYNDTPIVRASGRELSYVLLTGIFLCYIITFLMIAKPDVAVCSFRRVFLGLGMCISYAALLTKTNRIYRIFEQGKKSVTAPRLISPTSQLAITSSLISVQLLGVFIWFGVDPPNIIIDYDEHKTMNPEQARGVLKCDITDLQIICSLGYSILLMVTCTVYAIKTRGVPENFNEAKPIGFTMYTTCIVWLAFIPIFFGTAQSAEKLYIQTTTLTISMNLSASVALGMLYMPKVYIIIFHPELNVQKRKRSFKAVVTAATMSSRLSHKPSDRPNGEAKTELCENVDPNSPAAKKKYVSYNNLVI

348 GPCRs [8] = molecular target: T6, 348 GPCRs (Homo sapiens, UniProt Q99679); conditions: 10µM, Favipiravir 100μM
T6 construct: expressed in transfected cells; host or cells: HEK293A
T6 sequence (Q99679 whole entry): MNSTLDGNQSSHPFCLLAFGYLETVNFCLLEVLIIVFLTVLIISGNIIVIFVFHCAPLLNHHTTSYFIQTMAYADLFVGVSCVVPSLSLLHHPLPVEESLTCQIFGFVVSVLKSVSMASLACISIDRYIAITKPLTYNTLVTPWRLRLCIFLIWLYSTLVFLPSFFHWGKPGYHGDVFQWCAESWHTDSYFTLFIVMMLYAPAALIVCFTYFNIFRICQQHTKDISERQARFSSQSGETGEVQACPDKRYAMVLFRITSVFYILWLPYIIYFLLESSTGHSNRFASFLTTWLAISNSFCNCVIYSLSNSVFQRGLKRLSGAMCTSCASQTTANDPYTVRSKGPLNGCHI

348 GPCRs [9] = molecular target: T7, 348 GPCRs (Homo sapiens, UniProt Q9P296); conditions: 10µM, Favipiravir 100μM
T7 construct: expressed in transfected cells; host or cells: HEK293A
T7 sequence (Q9P296 whole entry): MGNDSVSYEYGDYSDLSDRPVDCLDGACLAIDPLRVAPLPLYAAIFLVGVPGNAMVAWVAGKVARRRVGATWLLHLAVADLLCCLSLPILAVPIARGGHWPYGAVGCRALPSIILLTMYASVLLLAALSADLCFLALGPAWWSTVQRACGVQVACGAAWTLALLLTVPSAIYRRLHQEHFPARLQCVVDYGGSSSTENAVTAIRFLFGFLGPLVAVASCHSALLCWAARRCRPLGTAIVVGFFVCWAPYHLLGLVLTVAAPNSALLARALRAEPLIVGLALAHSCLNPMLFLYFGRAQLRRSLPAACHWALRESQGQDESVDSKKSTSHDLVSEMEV

348 GPCRs [10] = molecular target: T8, 348 GPCRs (Homo sapiens, UniProt P41968)
T8 construct: expressed in transfected cells; host or cells: HEK293A
T8 sequence (P41968 whole entry): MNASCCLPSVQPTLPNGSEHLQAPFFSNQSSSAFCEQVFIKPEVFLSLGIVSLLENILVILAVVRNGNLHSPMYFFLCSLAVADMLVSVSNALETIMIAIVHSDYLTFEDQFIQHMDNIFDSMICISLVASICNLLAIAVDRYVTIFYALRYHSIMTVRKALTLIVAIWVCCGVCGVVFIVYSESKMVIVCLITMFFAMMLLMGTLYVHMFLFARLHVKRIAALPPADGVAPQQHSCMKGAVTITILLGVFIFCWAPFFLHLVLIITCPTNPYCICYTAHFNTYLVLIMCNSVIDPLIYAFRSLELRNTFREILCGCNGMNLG

348 GPCRs [11] = molecular target: 348 GPCRs (Homo sapiens, UniProt Q8TDS4)
Chain of 348 GPCRs (Homo sapiens, UniProt Q8TDS4) (Q8TDS4 whole entry): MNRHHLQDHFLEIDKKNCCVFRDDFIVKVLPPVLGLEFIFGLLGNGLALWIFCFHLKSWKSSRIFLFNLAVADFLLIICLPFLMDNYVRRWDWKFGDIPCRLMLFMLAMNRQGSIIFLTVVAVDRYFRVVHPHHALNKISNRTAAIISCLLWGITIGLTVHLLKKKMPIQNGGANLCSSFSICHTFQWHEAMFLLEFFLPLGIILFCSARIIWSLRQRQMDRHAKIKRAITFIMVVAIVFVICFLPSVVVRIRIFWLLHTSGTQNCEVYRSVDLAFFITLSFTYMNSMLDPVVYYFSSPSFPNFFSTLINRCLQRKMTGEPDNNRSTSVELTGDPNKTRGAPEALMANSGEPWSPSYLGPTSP

[12] = GPR82 (G Protein-Coupled Receptor 82), read-out: % GPCR activation compared to TPA
[13] = TAAR2 (trace amine associated receptor 2), read-out: % GPCR activation compared to TPA
[14] = GPR161 (G protein-coupled receptor 161), read-out: % GPCR activation compared to TPA
[15] = GPCR GPR123 (Adhesion G Protein-Coupled Receptor A1 (ADGRA1)), read-out: % GPCR activation compared to TPA
[16] = MLNR (motilin receptor), read-out: % GPCR activation compared to TPA
[17] = SSTR3 (somatostatin receptor 3), read-out: % GPCR activation compared to TPA
[18] = GRM7 (glutamate receptor, metabotropic 7), read-out: % GPCR activation compared to TPA
[19] = GPR21 (G Protein-Coupled Receptor 21), read-out: % GPCR activation compared to TPA
[20] = GPR77 (complement component 5a receptor 2 (C5AR2)), read-out: % GPCR activation compared to TPA
[21] = GPCR MC3R (melanocortin 3 receptor), read-out: % GPCR activation compared to TPA
[22] = HCA2, GPCR GPR109A (hydroxycarboxylic acid receptor 2 (HCA2)), read-out: % GPCR activation compared to TPA
[23] = read-out: % GPCR activation compared to TPA, GPR82 (G Protein-Coupled Receptor 82)
[24] = read-out: % GPCR activation compared to TPA, TAAR2 (trace amine associated receptor 2)
[25] = read-out: % GPCR activation compared to TPA, GPR161 (G protein-coupled receptor 161)
[26] = read-out: % GPCR activation compared to TPA, GPCR GPR123 (Adhesion G Protein-Coupled Receptor A1 (ADGRA1))
[27] = read-out: % GPCR activation compared to TPA, MLNR (motilin receptor)
[28] = read-out: % GPCR activation compared to TPA, SSTR3 (somatostatin receptor 3)
[29] = read-out: % GPCR activation compared to TPA, GRM7 (glutamate receptor, metabotropic 7)
[30] = read-out: % GPCR activation compared to TPA, GPR21 (G Protein-Coupled Receptor 21)
[31] = read-out: % GPCR activation compared to TPA, GPR77 (complement component 5a receptor 2 (C5AR2))
[32] = read-out: % GPCR activation compared to TPA, GPCR MC3R (melanocortin 3 receptor)
[33] = HCA2, read-out: % GPCR activation compared to TPA, GPCR GPR109A (hydroxycarboxylic acid receptor 2 (HCA2))

T1 sequence (Q96P67 whole entry): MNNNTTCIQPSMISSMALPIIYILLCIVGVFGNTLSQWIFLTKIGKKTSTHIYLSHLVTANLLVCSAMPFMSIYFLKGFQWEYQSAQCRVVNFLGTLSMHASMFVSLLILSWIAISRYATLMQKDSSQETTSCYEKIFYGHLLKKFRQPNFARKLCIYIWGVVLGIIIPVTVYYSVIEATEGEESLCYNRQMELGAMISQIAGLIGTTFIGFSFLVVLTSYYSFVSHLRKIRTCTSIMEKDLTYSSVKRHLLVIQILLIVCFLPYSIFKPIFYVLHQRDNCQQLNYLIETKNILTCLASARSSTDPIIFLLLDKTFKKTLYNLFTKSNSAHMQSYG

activation at 100 µM (348 GPCRs [1]; [12]) | activation at 100 µM (348 GPCRs [2]; [13]) | activation at 10 µM (348 GPCRs [3]; [14]) | activation at 10 µM (348 GPCRs [4]; [15]) | activation at 100 µM (348 GPCRs [5]; [16]) | activation at 10 µM (348 GPCRs [6]; [17]) | activation at 10 µM (348 GPCRs [7]; [18]) | activation at 100 µM (348 GPCRs [8]; [19]) | activation at 100 µM (348 GPCRs [9]; [20]) | activation at 10 µM (348 GPCRs [10]; [21]) | activation at 10 µM (348 GPCRs [11]; [22]) | Compound | activation at 100 µM (348 GPCRs [1]; [23]) | activation at 100 µM (348 GPCRs [2]; [24]) | activation at 10 µM (348 GPCRs [3]; [25]) | activation at 10 µM (348 GPCRs [4]; [26]) | activation at 100 µM (348 GPCRs [5]; [27]) | activation at 10 µM (348 GPCRs [6]; [28]) | activation at 10 µM (348 GPCRs [7]; [29]) | activation at 100 µM (348 GPCRs [8]; [30]) | activation at 100 µM (348 GPCRs [9]; [31]) | other results
-1.55% | -1.42% | -1.6% | 0.375% | -7.84% | 3.54% | 1.06% | 0.0472% | 2.65% | 2.26% | 0.689% | N#C[C@@]1(c2ccc3c(N)ncnn23)O[C@H](CO)[C@@H](O)[C@H]1O [GS441524] | – | – | – | – | – | – | – | – | – | –
-0.0995% | 0.753% | -0.46% | – | -4.07% | 1.41% | -0.143% | -0.0313% | 6.15% | – | – | NC(=O)c1nc(F)cnc1O [favipiravir, 6-fluoro-3-hydroxy-2-pyrazinecarboxamide] | – | – | – | – | – | – | – | – | – | activation at 100 µM (348 GPCRs [4]; GPCR GPR123 (Adhesion G Protein-Coupled Receptor A1 (ADGRA1)), 100μM, read-out: % GPCR activation compared to TPA): -1.45%; activation at 100 µM (348 GPCRs [10]; GPCR MC3R (melanocortin 3 receptor), 100μM, read-out: % GPCR activation compared to TPA): 0.3%; activation at 100 µM (348 GPCRs [11]; HCA2, GPCR GPR109A (hydroxycarboxylic acid receptor 2 (HCA2)), 100μM, read-out: % GPCR activation compared to TPA): 1.41%
-1.43% | -0.153% | -3.46% | -2.47% | -1.09% | -1.25% | -1.87% | 0.1% | -1.07% | -4.7% | -37.5% | CC(C)C(=O)OC[C@H]1O[C@@H](n2ccc(NO)nc2=O)[C@H](O)[C@@H]1O [molnupiravir] | – | – | – | – | – | – | – | – | – | –
– | – | – | – | – | – | – | – | – | – | – | CCC(CC)COC(=O)[C@H](C)N[P@](=O)(OC[C@H]1O[C@@](C#N)(c2ccc3c(N)ncnn23)[C@H](O)[C@@H]1O)Oc1ccccc1 [remdesivir] | -0.315% | 1.05% | -2.6% | -0.903% | -3.19% | 3.89% | -0.738% | -0.776% | 4.77% | activation at 10 µM (348 GPCRs [10]; [32]): 1.7%; activation at 10 µM (348 GPCRs [11]; [33]): 2.36%
– | – | – | – | – | – | – | – | – | – | – | CC(C)OC(=O)[C@H](C)N[P@](=O)(OC[C@H]1O[C@@H](n2ccc(=O)[nH]c2=O)[C@](C)(F)[C@@H]1O)Oc1ccccc1 [sofosbuvir] | 0.262% | -0.403% | -5.59% | 0.445% | -0.32% | -1.81% | 10.4% | 0.161% | -3.7% | activation at 10 µM (348 GPCRs [10]; [32]): -3.13%; activation at 10 µM (348 GPCRs [11]; [33]): -29.6%
